Measurements taken from patent publication US20230047825A1, “ANTIMICROBIAL PEPTIDES” (priority 2019, published 2023).
Values after ≈ are worked out from the molar mass of the structure shown. Read-outs that look alike come from different tables or passages of the source. Marks after values point to notes of the source that are not given here. Where a SMILES comes first, the peptide text is derived from it.

Columns and labels:
[1] = test system: Pseudomonas aeruginosa PA01; test: Antibacterial activity assay (broth microdilution MIC); assay type: cell-based; settings: for MIC, Stability in serum (MH) / MIC on initial panels: in µg/mL; for MIC on initial panels: medium and unit not given
[2] = test system: HeLa; test: Cytotoxicity assay (XTT); assay type: cell-based, human; set-up: Toxicity HeLa: unit not given beside the values; settings: for Toxicity HeLa: unit not given; for Toxicity HeLa (EC50), Peptide concentration: value printed in parentheses
Method in brief: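 Cells seeded 24 h in EMEM with 10% FBS and NEAA at 37 °C, 10% CO2, then medium replaced with peptide dilutions. After a further 24 h exposure, viability read by XTT tetrazolium staining.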

[3] = test system: Klebsiella pneumoniae M6; assay type: cell-based; settings: for MIC on initial panels: medium and unit not given
[4] = Electrophysiology (Port-a-Patch patch-clamp) on model membranes
From the text: The depth of insertion into each membrane is shown as the Z-position for each residue, averaged over all four peptides, relative to the phosphate group plane in the upper POPE/POPG (A/E/I) or POPG (C/G/K) bilayer leaflet in six MD simulations. Positive or negative values indicate the peptides are below or above the phosphate group. Representative current traces illustrating membrane activity when DPhPE/DPhPG (B/F/J) or DPhPG (D/H/L) model membranes are challenged with each peptide at the indicated concentration (lowest concentration that induced detectable activity). Data is for pleurocidin (A-D), pleurocidin-KR (E-H) and pleurocidin-VA (I-L). Membrane disordering by each peptide in mixed POPE/POPG bilayers is shown with data obtained from ^2H solid-state NMR (M/N) or from MD simulations where order parameters are calculated for all lipids within 4 Å of a peptide (O/P).
Molecular dynamics simulations. Simulations were carried out on either the ARCHER Cray XC30 supercomputer, or Dell Precision quad core T3400 or T3500 workstations equipped with a 1 kW Power supply (PSU) and two NVIDA PNY GeForce GTX570 or GTX580 graphics cards using Gromacs.^53 The CHARMM36 all-atom force field was used in all simulations^54-56. All simulations were run, as described previously^20 and for a total of 200 nanoseconds and repeated twice, with peptides inserted at different positions and orientations, giving a total of approximately 4.0 μs simulation. Liposome preparation and circular dichroism (CD) spectroscopy. Small unilamellar vesicles (SUV) were produced and far-UV spectra of the peptides obtained as described previously^20 using a Chirascan Plus spectrometer (Applied Photophysics, Leatherhead, UK) with samples maintained at 310 K. For liposome experiments the lipid concentration was 5 mM and a peptide to lipid molar ratio of 1:100 was maintained while the SDS micelles concentration was 20 mM with 200 μM peptide. Electrophysiology experiments (Patch-clamp). Patch clamp experiments were performed using the Port-a-Patch® (Nanion Technologies GmbH, Munich, Germany) with giant unilamellar vesicles (GUVs) composed of DPhPE/DPhPG (60:40, mol:mol) or DPhPG prepared by the electroformation method using the Nanion Vesicle Prep Pro setup (Nanion Technologies GmbH, Munich, Germany) as described previously.^20
Synergy experiments were performed following a checkerboard protocol.

[5] = test system: VS Enterococcus faecalis NCTC 775; test: Antibacterial activity assay (broth microdilution MIC); assay type: cell-based; settings: for MIC, Peptide concentration: Mueller-Hinton broth; for MIC on initial panels: VSE775, medium and unit not given, in µg/mL
[6] = test system: Acinetobacter baumannii AYE; assay type: cell-based; settings: for MIC / MIC, Stability in serum (MH) / MIC on initial panels: AYE; for MIC / MIC on initial panels: in µg/mL; for MIC on initial panels: medium and unit not given
[7] = test system: EMR Staphylococcus aureus-15 (EMRSA-15); assay type: cell-based; settings: for MIC on initial panels / MIC: EMRSA15; for MIC on initial panels: medium and unit inferred; for MIC: untitled table, medium/unit inferred, values match RPMI of Table 2
[8] = test system: Escherichia coli NCTC 12923; assay type: cell-based; settings: for MIC / MIC, Stability in serum (MH) / MIC on initial panels: EC12923; for MIC / MIC on initial panels: in µg/mL; for MIC on initial panels: medium and unit not given
[9] = test system: VR Enterococcus faecium NCTC 12204; test: Antibacterial activity assay (broth microdilution MIC); assay type: cell-based; settings: VRE12204, in µg/mL; for MIC on initial panels: medium and unit not given; for MIC: untitled table, medium/unit not given, values match RPMI of Table 2
[10] = test system: Pseudomonas aeruginosa NCTC 13437; test: as above; assay type: cell-based; settings: PA13437, in µg/mL; for MIC on initial panels: medium and unit not given
[11] = test system: Klebsiella pneumoniae NCTC 13368; assay type: cell-based; settings: for MIC, Stability in serum (MH) / MIC on initial panels / MIC: in µg/mL; for MIC on initial panels: medium and unit not given
[12] = test system: Acinetobacter baumannii ATCC 17978; assay type: cell-based; settings: in µg/mL; for MIC / MIC on initial panels: AB17978; for MIC on initial panels: medium and unit not given; for MIC, Stability in serum (MH): Ab17978
[13] = test system: EMR Staphylococcus aureus-16 (EMRSA-16); assay type: cell-based; settings: EMRSA16; for MIC on initial panels: medium and unit not given, in µg/mL; for MIC: untitled table, medium/unit inferred, values match RPMI of Table 2
[14] = untitled table, medium/unit inferred, values match RPMI of Table 2
[15] = untitled table, medium/unit not given, values match RPMI of Table 2, in µg/mL
[16] = untitled table, medium/unit not given, values match RPMI of Table 2
[17] = KP13368, Serum (10% fetal bovine serum)
[18] = KP13368, untitled table, medium/unit not given, values match RPMI of Table 2

## CC(C)C[C@H](NC(=O)[C@H](Cc1ccc(O)cc1)NC(=O)[C@H](Cc1c[nH]cn1)NC(=O)[C@@H](NC(=O)[C@H](CC(C)C)NC(=O)[C@H](C)NC(=O)[C@H](C)NC(=O)[C@H](CCCCN)NC(=O)CNC(=O)[C@@H](NC(=O)[C@H](Cc1c[nH]cn1)NC(=O)[C@H](CCCCN)NC(=O)CNC(=O)[C@@H](NC(=O)[C@H](Cc1c[nH]cn1)NC(=O)[C@H](C)NC(=O)[C@H](C)NC(=O)[C@H](CCCCN)NC(=O)[C@H](CCCCN)NC(=O)[C@H](Cc1ccccc1)NC(=O)[C@H](Cc1ccccc1)NC(=O)[C@H](CO)NC(=O)CNC(=O)[C@H](Cc1c[nH]c2ccccc12)NC(=O)CN)C(C)C)C(C)C)[C@@H](C)O)C(N)=O [Pleurocidin, reference compound] (H-GWGSFFKKAAHVGKHVGKAALTHYL-NH2; N-terminus assumed)
[1]; (MH)
  MIC: 64 µg/mL (≈ 23.6 µM)
[1]; (RPMI)
  MIC: > 32 µg/mL
[1]; No serum
  MIC, Stability in serum (MH): 16
[1]; Serum (10% fetal bovine serum)
  MIC, Stability in serum (MH): 32
[1]
  MIC on initial panels: 64
[1]; [14]
  MIC: > 32 µg/mL
[2]
  Toxicity HeLa: 58.2 ± 3.9
  Toxicity HeLa (EC50), Peptide concentration: (58.2 ± 3.9) μg/ml
[3]; (MH), in µg/mL
  MIC: 4
[3]; (RPMI), in µg/mL
  MIC: 32
[3]; No serum
  MIC, Stability in serum (MH): 4 µg/mL (≈ 1.48 µM)
[3]; Serum (10% fetal bovine serum)
  MIC, Stability in serum (MH): 8 µg/mL (≈ 2.95 µM)
[3]; in µg/mL
  MIC on initial panels: 4
[3]; [15]
  MIC: 32
[4]; DPhPE/DPhPG
  Peptide concentration necessary to start membrane activity: 10 µM
[4]; DPhPG
  Peptide concentration necessary to start membrane activity: 5 µM
[5]
  MIC, Peptide concentration: 64 (NG) μg/ml
  MIC on initial panels: 64
[6]; (MH)
  MIC: 1-2
[6]; (RPMI)
  MIC: 4-8
[6]; No serum
  MIC, Stability in serum (MH): 2 µg/mL (≈ 0.738 µM)
[6]; Serum (10% fetal bovine serum)
  MIC, Stability in serum (MH): 2 µg/mL (≈ 0.738 µM)
[6]
  MIC on initial panels: 1-2
[6]; [16]
  MIC: 4-8
[7]
  MIC on initial panels: 16 µg/mL (≈ 5.9 µM)
  MIC: 4 µg/mL (≈ 1.48 µM)
[8]; (MH)
  MIC: 1-2
[8]; (RPMI)
  MIC: 16
[8]; No serum
  MIC, Stability in serum (MH): 2 µg/mL (≈ 0.738 µM)
[8]; Serum (10% fetal bovine serum)
  MIC, Stability in serum (MH): 1 µg/mL (≈ 0.369 µM)
[8]
  MIC on initial panels: 1-2
[8]; [16]
  MIC: 16
[9]
  MIC on initial panels: 16-32
  MIC: 32
[10]; (MH)
  MIC: 16-32
[10]; (RPMI)
  MIC: >32
[10]; No serum
  MIC, Stability in serum (MH): 16
[10]; Serum (10% fetal bovine serum)
  MIC, Stability in serum (MH): 32
[10]
  MIC on initial panels: 16-32
[10]; [16]
  MIC: >32
[11]; KP13368, No serum
  MIC, Stability in serum (MH): 4
[11]; [17]
  MIC, Stability in serum (MH): 8
[11]; KP13368
  MIC on initial panels: 4-8
[11]; [18]
  MIC: 32
[11]; Klebsiella pneumoniae KP13368, (MH)
  MIC: 4-8
[11]; Klebsiella pneumoniae KP13368, (RPMI)
  MIC: 32
[11]; NCTC 13368
  MIC, Peptide concentration: 3 µg/mL (≈ 1.11 µM)
[12]; (MH)
  MIC: 1-2
[12]; (RPMI)
  MIC: 8
[12]
  MIC on initial panels: 1-2
[12]; [16]
  MIC: 8
[12]; No serum
  MIC, Stability in serum (MH): 2
[12]; Serum (10% fetal bovine serum)
  MIC, Stability in serum (MH): 2
[13]
  MIC on initial panels: 16
  MIC: 4 µg/mL (≈ 1.48 µM)

## CC(C)C[C@H](NC(=O)[C@H](Cc1ccc(O)cc1)NC(=O)[C@H](Cc1c[nH]cn1)NC(=O)[C@@H](NC(=O)[C@H](CC(C)C)NC(=O)[C@H](C)NC(=O)[C@H](C)NC(=O)[C@H](CCCNC(=N)N)NC(=O)CNC(=O)[C@@H](NC(=O)[C@H](Cc1c[nH]cn1)NC(=O)[C@H](CCCNC(=N)N)NC(=O)CNC(=O)[C@@H](NC(=O)[C@H](Cc1c[nH]cn1)NC(=O)[C@H](C)NC(=O)[C@H](C)NC(=O)[C@H](CCCNC(=N)N)NC(=O)[C@H](CCCNC(=N)N)NC(=O)[C@H](Cc1ccccc1)NC(=O)[C@H](Cc1ccccc1)NC(=O)[C@H](CO)NC(=O)CNC(=O)[C@H](Cc1c[nH]c2ccccc12)NC(=O)CN)C(C)C)C(C)C)[C@@H](C)O)C(N)=O [Pleurocidin-KR] (H-GWGSFFRRAAHVGRHVGRAALTHYL-NH2; N-terminus assumed)
[1]; No serum
  MIC, Stability in serum (MH): 4
[1]; Serum (10% fetal bovine serum)
  MIC, Stability in serum (MH): >128
[1]
  MIC on initial panels: 4
[1]; [14]
  MIC: > 32 µg/mL
[2]
  Toxicity HeLa: 30.7 ± 2.6
  Toxicity HeLa (EC50), Peptide concentration: (30.7 ± 2.6) μg/ml
[3]
  MIC, Peptide concentration: 2 µg/mL (≈ 0.709 µM)
[3]; No serum
  MIC, Stability in serum (MH): 4 µg/mL (≈ 1.42 µM)
[3]; Serum (10% fetal bovine serum)
  MIC, Stability in serum (MH): 2 µg/mL (≈ 0.709 µM)
[3]; in µg/mL
  MIC on initial panels: 2
[3]; [15]
  MIC: 32
[4]; DPhPE/DPhPG
  Peptide concentration necessary to start membrane activity: 10 µM
[4]; DPhPG
  Peptide concentration necessary to start membrane activity: 7.5 µM
[5]
  MIC, Peptide concentration: 16 (NG) μg/ml
  MIC on initial panels: 16
[6]; No serum
  MIC, Stability in serum (MH): 2 µg/mL (≈ 0.709 µM)
[6]; Serum (10% fetal bovine serum)
  MIC, Stability in serum (MH): 2 µg/mL (≈ 0.709 µM)
[6]
  MIC on initial panels: 1-2
[6]; [16]
  MIC: 8-16
[6]; RPMI (value in parentheses)
  MIC, Peptide concentration: 8 to 16 µg/mL
[7]; EMR -15 (EMRSA-15)
  MIC, Peptide concentration: 4 (4) μg/ml
[7]
  MIC on initial panels: 4 µg/mL (≈ 1.42 µM)
  MIC: 4 µg/mL (≈ 1.42 µM)
[8]; No serum
  MIC, Stability in serum (MH): 2 µg/mL (≈ 0.709 µM)
[8]; Serum (10% fetal bovine serum)
  MIC, Stability in serum (MH): 1 µg/mL (≈ 0.354 µM)
[8]
  MIC on initial panels: 1
[8]; [16]
  MIC: 16
[8]; NCTC 12923
  MIC, Peptide concentration: 16 µg/mL (≈ 5.67 µM)
[9]
  MIC on initial panels: 4
  MIC: 16
[10]; No serum
  MIC, Stability in serum (MH): 4
[10]; Serum (10% fetal bovine serum)
  MIC, Stability in serum (MH): 32*
[10]
  MIC on initial panels: 8
[10]; [16]
  MIC: >32
[11]; KP13368, No serum
  MIC, Stability in serum (MH): 2
[11]; [17]
  MIC, Stability in serum (MH): 4
[11]; KP13368
  MIC on initial panels: 2-4
[11]; [18]
  MIC: 32
[12]
  MIC on initial panels: 1
[12]; [16]
  MIC: 8
[12]; No serum
  MIC, Stability in serum (MH): 2
[12]; Serum (10% fetal bovine serum)
  MIC, Stability in serum (MH): 2
[13]
  MIC on initial panels: 4
  MIC: 8 µg/mL (≈ 2.83 µM)
